In patent US20240271138A1, “METHODS AND COMPOSITIONS FOR MODULATING STING SIGNALING AND INNATE IMMUNE RESPONSES” (The Broad Institute, Inc., priority 2021, published 2024):

What was measured:
Assay type in all cases: cell-based, human
[1] = test system: STING association with ESCRT (HGS, VPS37A) and TBK1; assay: STING-TurboID proximity biotin labeling and streptavidin pull-down in 293T; settings: 293T STING-TurboID; 3 hours; 0.5 μM MLN7243; FIG. 5C
Procedure: Generation of cells and stimulation. 293T cells were transduced with pTRIP-hPGK-Blast-2A-STING-TurboID and selected with 15 μg/mL Blasticidin (Invivogen) for one week. To test the construct via pull-down, 0.8 million cells were seeded in a 6 well plate. The following day, cells were permeabilized with 300 μl/well of cGAMP permeabilization buffer [50 mM HEPES (Corning), 100 mM KCl (Thermo Fisher), 3 mM MgCl2 (Thermo Fisher), 0.1 mM DTT (Thermo fisher), 85 mM Sucrose (Thermo Fisher), 0.5 mM ATP (Cayman chemicals), 0.1 mM GTP (Cayman Chemicals), 0.2% BSA (Seracare), 0.001% Digitonin (Promega)| containing 1 μg/mL 2′3′-cGAMP (Invivogen) or water for 10 minutes at 37° C., washed with 3 mL of warm medium and then medium was replaced. For mass-spec, 6 million cells were seeded in a 10 cm dish for each condition. Cells were stimulated with 2.8 mL of cGAMP permeabilization buffer containing 6 μg total of cGAMP per dish. Cells were left stimulating for the desired times and 500 μM biotin (Cayman chemicals) was added in each well 30 minutes prior to harvest. Cells were harvested by trypsinization, washed 3 times in cold PBS and pellets were frozen until processing. For experiments in 6 well plates, 3 wells per condition were harvested. For experiments in 10 cm dishes, one dish per condition was harvested.
Pull-down. […]

[2] = test system: BJ1 fibroblasts; assay: Immunoblot of STING signaling in BJ1 fibroblasts stimulated with cGAMP; settings: cGAMP 2 hours, 0.5 μM MLN7243, FIG. 5D
Procedure: MLN7243 was added again after medium replacement. Cells were stimulated for the indicated times.
Samples for pull-downs or immunoprecipitations were treated as described in the corresponding paragraphs. For experiments involving seeding of cells in 6 well plates or 24 well plates (293 Ts and hTert-BJ1), one well per condition was harvested, lysed in RIPA buffer (Boston Bioproducts) containing complete, Mini, EDTA-free Protease Inhibitor Cocktail (Millipore Sigma) and PhosSTOP (Millipore Sigma) for 10 minutes on ice. Lysates were cleared by centrifugation at 16000 g for 10 minutes at 4° C. and Laemmli 6×, Sample buffer, SDS, and reducing agents (Boston Bioproducts) were added prior to loading. Samples were run on NuPAGE 4 to 12%, Bis-Tris Gels (Thermo Fisher) and transferred on nitrocellulose membrane with an iBlot2 (Thermo Fisher). Membranes were blocked in 5% non-fat milk in TBS Tween. Antibodies against phospho-proteins were incubated in 5% BSA TBS tween. ECL signal was recorded on a ChemiDoc Biorad Imager. Data was analyzed with ImageLab (Biorad).

[3] = test system: 293T stably expressing STING-HA; assay: Immunofluorescence of HGS, p62, CD63, LC3B and STING in 293T STING-HA after cGAMP; settings: 293T STING-HA; cGAMP 2 hours; MLN7243; FIGS. 5E-5F
Procedure: 293T STING-TurboID were seeded directly on coverslips. 293T STING-HA were seeded on Fibronectin bovine plasma (Sigma-stock: 100×) coated coverslips. Cells were seeded the day before stimulation at 0.1 million cells/well density in 24 well plates. Cells were stimulated with cGAMP permeabilization buffer containing 1 μg/mL cGAMP for 10 minutes, washed with warm medium, and incubated for the indicated times. hTert-BJ1 mScarlet or mScarlet-UBAP1DN were seeded Fibronectin bovine plasma coated coverslips at 0.05 million cells/well density in a 24 well plate and fixed 6 hours post seeding. Cells were then fixed with 2% Paraformaldehyde (Electron Microscopy Sciences) in PHEM buffer (Electron Microscopy Sciences) for 30 minutes at 37° C., washed three times with PBS and quenched with freshly prepared 0.1M Glycine for 10 minutes. Coverslips were then permeabilized and blocked with 10% goat serum (Thermo Fisher) in PBS, 0.5% BSA (Seracare), 0.05% Saponin from Quillaja bark (Sigma) for 30 minutes. Coverslips were then stained with primary antibodies for 1-2 hours at room temperature in PBS, 0.5% BSA (Seracare), 0.05% Saponin from Quillaja bark (Sigma) with 10% goat serum, washed 5 times, and then stained with secondary antibodies in PBS, 0.5% BSA (Seracare), 0.05% Saponin from Quillaja bark (Sigma) for 1-2 hours. […] Images were analyzed in FiJi. […]

SMILES: NS(=O)(=O)OC[C@H]1C[C@@H](Nc2ccnc3cc(-c4cccc(SC(F)(F)F)c4)nn23)[C@H](O)[C@@H]1O [MLN7243]
- biotin labeling of HGS and VPS37A by STING-TurboID [1]: reduced the biotin labeling of HGS and VPS37A
- biotin labeling of TBK1 by STING-TurboID [1]: unaffected
- STING degradation [2]: abrogated STING degradation
- lipidated LC3B [2]: induced accumulation of lipidated LC3B
- phospho-STING signaling [2]: increased phospho-STING signaling
- HGS co-localization with p62 [3]: failed to co-localize with p62
- HGS foci co-localizing with STING [3]: completely lost
